In patent US11051515B2, “3-acyl-benzamides and their use as herbicides” (Bayer Aktiengesellschaft, priority 2017, dated 2021):

Tests used:
HORMU = assay: Pre-emergence action against HORMU; assay type: in vivo, Hordeum murinum; settings: Dosage 320 g/ha
Text: (§1) Seeds of monocotyledonous and dicotyledonous weed plants and crop plants are laid out in sandy loam soil in wood-fiber pots and covered with soil. The compounds of the invention, formulated in the form of wettable powders (WP) or as emulsion concentrates (EC), are then applied to the surface of the covering soil in the form of an aqueous suspension or emulsion at a water application rate equating to […], with addition of 0.2% wetting agent. After the treatment, the pots are placed in a greenhouse and kept under good growth conditions for the trial plants. The damage to the test plants is scored visually after a test period of 3 weeks by comparison with untreated controls (herbicidal activity in percent (%): 100% activity=the plants have died, 0% activity=like control plants).

VERPE [1] = assay: Pre-emergence action against VERPE; assay type: in vivo, Veronica persica; settings: Dosage 320 g/ha, pre-emergence
Method in brief: (§2)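 Seeds sown in sandy loam in wood-fiber pots and covered with soil. Greenhouse growth; visual damage scored after 3 weeks versus untreated controls (100% = dead, 0% = like control).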

AMARE [2] = assay: Post-emergence action against AMARE; assay type: in vivo, Amaranthus retroflexus; settings: post-emergence, dosage 80 g/ha, visual assessment about 3 weeks after treatment vs untreated controls
Method in brief: (§3)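 Weeds grown in sandy loam in greenhouse, treated at one-leaf stage (2–3 weeks after sowing) with WP or EC formulations sprayed as aqueous suspension/emulsion at 600 to […] water with 0.2% wetting agent. Visual rating after about 3 weeks versus untreated controls, as % herbicidal action (100% = plants dead, 0% = like control).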

ABUTH [3] = assay: Post-emergence action against ABUTH; assay type: in vivo, Abutilon theophrasti; settings: post-emergence, dosage 80 g/ha, visual assessment about 3 weeks after treatment vs untreated controls
Method in brief: as §3

AVEFA [4] = assay: Pre-emergence action against AVEFA; assay type: in vivo, Avena fatua; settings: dosage 320 g/ha, scored visually after 3 weeks vs untreated controls
Method in brief: as §2

VIOTR [5] = assay: Post-emergence action against VIOTR; assay type: in vivo, Viola tricolor; settings: post-emergence, dosage 80 g/ha
Method in brief: as §3

AMARE [6] = assay: Pre-emergence action against AMARE; assay type: in vivo, Amaranthus retroflexus; settings: pre-emergence, dosage 320 g/ha, scored visually after 3 weeks vs untreated controls
Method in brief: as §2

SETVI [7] = assay: Pre-emergence action against SETVI; assay type: in vivo, Setaria viridis; settings: pre-emergence, dosage 320 g/ha, scored visually after 3 weeks vs untreated controls
Method in brief: as §2

PHBPU [8] = assay: Pre-emergence action against PHBPU; assay type: in vivo, Pharbitis purpurea; settings: Dosage 320 g/ha, pre-emergence
Method in brief: as §2

LOLRI = assay: Pre-emergence action against LOLRI; assay type: in vivo, Lolium rigidum; settings: dosage 320 g/ha, scored visually after 3 weeks vs untreated controls
Text: as §1

STEME [9] = assay: Pre-emergence action against STEME; assay type: in vivo, Stellaria media; settings: Dosage 320 g/ha, pre-emergence
Method in brief: as §2

MATIN [10] = assay: Post-emergence action against MATIN; assay type: in vivo, Matricaria inodora; settings: post-emergence, dosage 80 g/ha, visual assessment about 3 weeks after treatment vs untreated controls
Method in brief: as §3

PHBPU [11] = assay: Post-emergence action against PHBPU; assay type: in vivo, Pharbitis purpurea; settings: post-emergence, dosage 80 g/ha
Method in brief: as §3

ECHCG [12] = assay: Post-emergence action against ECHCG; assay type: in vivo, Echinochloa crus-galli; settings: post-emergence, dosage 80 g/ha, visual assessment about 3 weeks after treatment vs untreated controls
Method in brief: as §3

VERPE [13] = assay: Post-emergence action against VERPE; assay type: in vivo, Veronica persica; settings: Veronica persica, 504 h, dosage 80 g/ha
Method in brief: as §3

VIOTR [14] = assay: Pre-emergence action against VIOTR; assay type: in vivo, Viola tricolor; settings: Dosage 320 g/ha, pre-emergence
Method in brief: as §2

STEME [15] = assay: Post-emergence action against STEME; assay type: in vivo, Stellaria media; settings: post-emergence, dosage 80 g/ha
Method in brief: as §3

ALOMY = assay: Pre-emergence action against ALOMY; assay type: in vivo, Alopecurus myosuroides; settings: dosage 320 g/ha, pre-emergence, scored visually after 3 weeks vs untreated controls, 100% = plants have died, 0% = like control plants
Method in brief: as §2

ECHCG [16] = assay: Pre-emergence action against ECHCG; assay type: in vivo, Echinochloa crus-galli; settings: pre-emergence, dosage 320 g/ha, scored visually after 3 weeks vs untreated controls
Method in brief: as §2

ABUTH [17] = assay: Pre-emergence action against ABUTH; assay type: in vivo, Abutilon theophrasti; settings: pre-emergence, dosage 320 g/ha, scored visually after 3 weeks vs untreated controls
Method in brief: as §2

MATIN [18] = assay: Pre-emergence action against MATIN; assay type: in vivo, Matricaria inodora; settings: Dosage 320 g/ha, pre-emergence
Method in brief: as §2

CYPES [19] = assay: Pre-emergence action against CYPES; assay type: in vivo, Cyperus esculentus; settings: pre-emergence, dosage 320 g/ha, scored visually after 3 weeks vs untreated controls
Method in brief: as §2

AVEFA [20] = assay: Post-emergence action against AVEFA; assay type: in vivo, Avena fatua; settings: post-emergence, dosage 80 g/ha, visual assessment about 3 weeks after treatment vs untreated controls
Method in brief: as §3

SETVI [21] = assay: Post-emergence action against SETVI; assay type: in vivo, Setaria viridis; settings: post-emergence, dosage 80 g/ha, visual assessment about 3 weeks after treatment vs untreated controls
Method in brief: as §3

POLCO = assay: Pre-emergence action against POLCO; assay type: in vivo, Polygonum convolvulus; settings: Dosage 320 g/ha, pre-emergence
Method in brief: as §2

CYPES [22] = assay: Post-emergence action against CYPES; assay type: in vivo, Cyperus esculentus; settings: post-emergence, dosage 80 g/ha, visual assessment about 3 weeks after treatment vs untreated controls
Method in brief: as §3

CCCC(=O)c1c(C(F)(F)F)ccc(C(=O)Nc2nnnn2C)c1Cl [1-139]
pest or weed control at 320 g/ha (HORMU; Hordeum murinum, 504 h): 90% | pest or weed control at 320 g/ha (VERPE [1]; Veronica persica, 504 h): 100% | pest or weed control at 80 g/ha (AMARE [2]; Amaranthus retroflexus, 504 h, read-out: Post-emergence action against AMARE (herbicidal action in percent)): 100% | pest or weed control at 80 g/ha (ABUTH [3]; Abutilon theophrasti, 504 h, read-out: Post-emergence action against ABUTH (herbicidal action in percent)): 90% | pest or weed control at 320 g/ha (AVEFA [4]; Avena fatua, 504 h, read-out: Pre-emergence action against AVEFA (herbicidal activity)): 100% | pest or weed control at 80 g/ha (VIOTR [5]; Viola tricolor, 504 h): 100% | pest or weed control at 320 g/ha (AMARE [6]; Amaranthus retroflexus, 504 h, read-out: Pre-emergence action against AMARE (herbicidal activity)): 100% | pest or weed control at 320 g/ha (SETVI [7]; Setaria viridis, 504 h, read-out: SETVI (Table B8, pre-emergence herbicidal activity)): 100% | pest or weed control at 320 g/ha (PHBPU [8]; Ipomoea purpurea, 504 h): 100% | pest or weed control at 320 g/ha (LOLRI; Lolium rigidum, 504 h, read-out: Pre-emergence action against LOLRI (herbicidal activity)): 100% | pest or weed control at 320 g/ha (STEME [9]; Stellaria media, 504 h): 100% | pest or weed control at 80 g/ha (MATIN [10]; Tripleurospermum inodorum, 504 h, read-out: Post-emergence action against MATIN (herbicidal action in percent)): 90% | pest or weed control at 80 g/ha (PHBPU [11]; Ipomoea purpurea, 504 h): 100% | pest or weed control at 80 g/ha (ECHCG [12]; Echinochloa crus-galli, 504 h, read-out: Post-emergence action against ECHCG (herbicidal action in percent)): 90% | pest or weed control at 80 g/ha (VERPE [13]): 80% | pest or weed control at 320 g/ha (VIOTR [14]; Viola tricolor, 504 h): 100% | pest or weed control at 80 g/ha (STEME [15]; Stellaria media, 504 h): 100% | pest or weed control at 320 g/ha (ALOMY; Alopecurus myosuroides, 504 h, read-out: Pre-emergence action against ALOMY (herbicidal activity in percent)): 100% | pest or weed control at 320 g/ha (ECHCG [16]; Echinochloa crus-galli, 504 h, read-out: Pre-emergence action against ECHCG (herbicidal activity)): 100% | pest or weed control at 320 g/ha (ABUTH [17]; Abutilon theophrasti, 504 h, read-out: Pre-emergence action against ABUTH (herbicidal activity)): 100% | pest or weed control at 320 g/ha (MATIN [18]; Tripleurospermum inodorum, 504 h): 100% | pest or weed control at 320 g/ha (CYPES [19]; Cyperus esculentus, 504 h, read-out: Pre-emergence action against CYPES (herbicidal activity)): 90%

CCCC(=O)c1c(C(F)(F)F)ccc(C(=O)Nc2nnnn2CC)c1Cl [2-139]
Pre-emergence action against HORMU (HORMU): 80% | Pre-emergence action against VERPE (VERPE [1]): 100% | Post-emergence action against AMARE (herbicidal action in percent) (AMARE [2]): 100% | Post-emergence action against ABUTH (herbicidal action in percent) (ABUTH [3]): 90% | Pre-emergence action against AVEFA (herbicidal activity) (AVEFA [4]): 80% | Post-emergence action against VIOTR (VIOTR [5]): 100 | Pre-emergence action against AMARE (herbicidal activity) (AMARE [6]): 100% | SETVI (Table B8, pre-emergence herbicidal activity) (SETVI [7]): 100% | Pre-emergence action against PHBPU (PHBPU [8]): 100% | Pre-emergence action against LOLRI (herbicidal activity) (LOLRI): 100% | Pre-emergence action against STEME (STEME [9]): 100% | Post-emergence action against MATIN (herbicidal action in percent) (MATIN [10]): 90% | Post-emergence action against PHBPU (PHBPU [11]): 100 | Post-emergence action against ECHCG (herbicidal action in percent) (ECHCG [12]): 90% | Pre-emergence action against VIOTR (VIOTR [14]): 100% | Post-emergence action against STEME (STEME [15]): 100 | Pre-emergence action against ALOMY (herbicidal activity in percent) (ALOMY): 100% | Pre-emergence action against ECHCG (herbicidal activity) (ECHCG [16]): 100% | Pre-emergence action against ABUTH (herbicidal activity) (ABUTH [17]): 100% | Pre-emergence action against MATIN (MATIN [18]): 100% | Pre-emergence action against CYPES (herbicidal activity) (CYPES [19]): 100%

CCCn1nnnc1NC(=O)c1ccc(C(F)F)c(C(=O)C2CC2)c1Cl [3-168]
Pre-emergence action against HORMU (HORMU): 90% | Pre-emergence action against VERPE (VERPE [1]): 100% | Post-emergence action against AMARE (herbicidal action in percent) (AMARE [2]): 100% | Post-emergence action against AVEFA (herbicidal action in percent) (AVEFA [20]): 90% | Post-emergence action against SETVI (herbicidal action in percent) (SETVI [21]): 100% | Post-emergence action against ABUTH (herbicidal action in percent) (ABUTH [3]): 100% | Pre-emergence action against AVEFA (herbicidal activity) (AVEFA [4]): 100% | Post-emergence action against VIOTR (VIOTR [5]): 100 | Pre-emergence action against AMARE (herbicidal activity) (AMARE [6]): 100% | SETVI (Table B8, pre-emergence herbicidal activity) (SETVI [7]): 100% | Pre-emergence action against PHBPU (PHBPU [8]): 100% | Pre-emergence action against LOLRI (herbicidal activity) (LOLRI): 100% | Pre-emergence action against STEME (STEME [9]): 100% | Post-emergence action against MATIN (herbicidal action in percent) (MATIN [10]): 100% | Post-emergence action against PHBPU (PHBPU [11]): 100 | Post-emergence action against ECHCG (herbicidal action in percent) (ECHCG [12]): 100% | Pre-emergence action against POLCO (POLCO): 80% | Pre-emergence action against VIOTR (VIOTR [14]): 100% | Post-emergence action against STEME (STEME [15]): 100 | Pre-emergence action against ALOMY (herbicidal activity in percent) (ALOMY): 100% | Post-emergence action against CYPES (herbicidal action in percent) (CYPES [22]): 90% | Pre-emergence action against ECHCG (herbicidal activity) (ECHCG [16]): 100% | Pre-emergence action against ABUTH (herbicidal activity) (ABUTH [17]): 100% | Pre-emergence action against MATIN (MATIN [18]): 100%
